# Data: PubChem BioAssay (NCI)
#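 These data come from cells grown in 96-well plates and exposed to compound for 48 hours at five concentrations. GI50 = concentration required for 50% inhibition of growth. TGI: concentration producing complete growth inhibition.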
# Columns and labels:
# Experiment in all cases: NCI tumour cell line growth inhibition, 48 h
# [1] = tested on: SK-MEL-5 melanoma
# [2] = tested on: SF-539 CNS
# [3] = tested on: SN12C renal
# [4] = tested on: EKVX NSCLC
# [5] = tested on: RPMI-8226 leukemia
# [6] = tested on: SW-620 colon
# [7] = tested on: MDA-MB-435
# [8] = tested on: SNB-75 CNS
# [9] = tested on: NCI-H226 lung
# [10] = tested on: MDA-MB-231 breast
# [11] = tested on: HCC-2998 colon
# [12] = tested on: ACHN renal
# [13] = tested on: SK-MEL-28 melanoma
# [14] = tested on: DU-145 prostate
# [15] = tested on: OVCAR-3 ovarian
# [16] = tested on: NCI-H460 lung
# [17] = tested on: NCI/ADR-RES ovarian
# [18] = tested on: UO-31 renal
# [19] = tested on: KM12 colon
# [20] = tested on: HCT-116 colon
# [21] = tested on: SK-MEL-2 melanoma
# [22] = tested on: SF-295 CNS
# [23] = tested on: TK-10 renal
# [24] = tested on: RXF 393 renal
# [25] = tested on: UACC-62 melanoma
# [26] = tested on: UACC-257 melanoma
# [27] = tested on: CAKI-1 renal
# [28] = tested on: M14 melanoma
# [29] = tested on: OVCAR-5 ovarian
# [30] = tested on: A498 renal
# [31] = tested on: CCRF-CEM leukemia
# [32] = tested on: BT-549 breast
# [33] = tested on: HCT-15 colon
# [34] = tested on: SK-OV-3 ovarian
# [35] = tested on: NCI-H23 lung
# [36] = tested on: HOP-92 NSCLC
# [37] = tested on: HL-60(TB) leukemia
# [38] = tested on: MCF7 breast
# [39] = tested on: SNB-19 CNS
# [40] = tested on: K-562 leukemia
# [41] = tested on: MALME-3M melanoma
# [42] = tested on: OVCAR-4 ovarian
# [43] = tested on: HS 578T breast
# [44] = tested on: SR leukemia
# [45] = tested on: HOP-62 NSCLC
# [46] = tested on: HT29 colon
# [47] = tested on: NCI-H522 lung
# [48] = tested on: MOLT-4 leukemia
# [49] = tested on: 786-0 renal
# [50] = tested on: SF-268 CNS
# [51] = tested on: T-47D breast
# [52] = tested on: PC-3 prostate
# [53] = tested on: A549 NSCLC
# [54] = tested on: OVCAR-8 ovarian
# [55] = tested on: IGROV1 ovarian
# [56] = tested on: COLO 205 colon
# [57] = tested on: LOX IMVI melanoma
# [58] = tested on: U251 CNS
smiles,measurement,setting,value
Cc1[nH]c(C(=O)Nc2ccccc2OCc2cccc(C(=O)NC3CCNC3)c2)c(Cl)c1Cl (stereo not drawn),GI50,[1],5.25 µM
same,TGI,[1],19.2 µM
same,GI50,[2],1.74 µM
same,TGI,[2],3.26 µM
same,GI50,[3],11 µM
same,TGI,[3],27.7 µM
same,GI50,[4],1.95 µM
same,TGI,[4],4.64 µM
same,GI50,[5],2.31 µM
same,TGI,[5],5.07 µM
same,GI50,[6],1.86 µM
same,TGI,[6],3.54 µM
same,GI50,[7],1.79 µM
same,TGI,[7],3.33 µM
same,GI50,[8],1.56 µM
same,TGI,[8],4.95 µM
same,GI50,[9],15.3 µM
same,TGI,[9],47.3 µM
same,GI50,[10],1.88 µM
same,TGI,[10],3.59 µM
same,GI50,[11],1.91 µM
same,TGI,[11],3.55 µM
same,GI50,[12],3.17 µM
same,TGI,[12],11.5 µM
same,GI50,[13],1.86 µM
same,TGI,[13],3.43 µM
same,GI50,[14],1.88 µM
same,TGI,[14],3.37 µM
same,GI50,[15],1.89 µM
same,TGI,[15],3.44 µM
same,GI50,[16],1.9 µM
same,TGI,[16],3.58 µM
same,GI50,[17],> 100 µM
same,TGI,[17],> 100 µM
same,GI50,[18],15.4 µM
same,TGI,[18],51.1 µM
same,GI50,[19],1.94 µM
same,TGI,[19],3.69 µM
same,GI50,[20],1.85 µM
same,TGI,[20],3.67 µM
same,GI50,[21],19 µM
same,TGI,[21],57.1 µM
same,GI50,[22],4.52 µM
same,TGI,[22],38.9 µM
same,GI50,[23],2.86 µM
same,TGI,[23],7.19 µM
same,GI50,[24],2.07 µM
same,TGI,[24],4.9 µM
same,GI50,[25],1.67 µM
same,TGI,[25],3.32 µM
same,GI50,[26],5.75 µM
same,TGI,[26],31.1 µM
same,GI50,[27],2.05 µM
same,TGI,[27],5.1 µM
same,GI50,[28],1.75 µM
same,TGI,[28],3.4 µM
same,GI50,[29],1.76 µM
same,TGI,[29],3.24 µM
same,GI50,[30],12.6 µM
same,TGI,[30],26.7 µM
same,GI50,[31],1.91 µM
same,TGI,[31],4.46 µM
same,GI50,[32],5.15 µM
same,TGI,[32],25.1 µM
same,GI50,[33],4.87 µM
same,TGI,[33],22.7 µM
same,GI50,[34],23.6 µM
same,TGI,[34],47.3 µM
same,GI50,[35],1.91 µM
same,TGI,[35],3.89 µM
same,GI50,[36],3.57 µM
same,TGI,[36],20.5 µM
same,GI50,[37],2.21 µM
same,TGI,[37],5.11 µM
NC(=O)n1c(=O)n(-c2cccc(C(F)(F)F)c2)c(=O)c2cc(-c3ccc(F)cc3F)ccc21,GI50,[1],0.338 µM
same,TGI,[1],1.21 µM
same,GI50,[2],2.11 µM
same,TGI,[2],8.5 µM
same,GI50,[38],1.74 µM
same,TGI,[38],6.47 µM
same,GI50,[39],1.51 µM
same,TGI,[39],12.7 µM
same,GI50,[3],1.27 µM
same,TGI,[3],7.24 µM
same,GI50,[40],0.771 µM
same,TGI,[40],80.3 µM
same,GI50,[4],2.83 µM
same,TGI,[4],9.59 µM
same,GI50,[5],0.99 µM
same,TGI,[5],5.12 µM
same,GI50,[6],2.65 µM
same,TGI,[6],10.4 µM
same,GI50,[7],1.89 µM
same,TGI,[7],7.33 µM
same,GI50,[8],1.81 µM
same,TGI,[8],7.47 µM
same,GI50,[9],1.31 µM
same,TGI,[9],3.99 µM
same,GI50,[41],1.44 µM
same,TGI,[41],5.3 µM
same,GI50,[42],2.81 µM
same,TGI,[42],16.5 µM
same,GI50,[43],2.12 µM
same,TGI,[43],7.06 µM
same,GI50,[10],2.12 µM
same,TGI,[10],6.86 µM
same,GI50,[11],2.76 µM
same,TGI,[11],9.26 µM
same,GI50,[44],0.58 µM
same,TGI,[44],4.6 µM
same,GI50,[12],2.42 µM
same,TGI,[12],10.1 µM
same,GI50,[13],1.39 µM
same,TGI,[13],8.55 µM
same,GI50,[14],3.53 µM
same,TGI,[14],15.5 µM
same,GI50,[45],1.96 µM
same,TGI,[45],4.79 µM
same,GI50,[16],1.39 µM
same,TGI,[16],6.8 µM
same,GI50,[46],4.38 µM
same,TGI,[46],18.8 µM
same,GI50,[17],2.06 µM
same,TGI,[17],8.87 µM
same,GI50,[47],0.493 µM
same,TGI,[47],3.74 µM
same,GI50,[18],2.19 µM
same,TGI,[18],8.44 µM
same,GI50,[48],2.22 µM
same,TGI,[48],6.16 µM
same,GI50,[19],2.55 µM
same,TGI,[19],7.15 µM
same,GI50,[49],1.94 µM
same,TGI,[49],4.54 µM
same,GI50,[20],0.559 µM
same,TGI,[20],1.98 µM
same,GI50,[50],2.57 µM
same,TGI,[50],13 µM
same,GI50,[21],0.75 µM
same,TGI,[21],2.82 µM
same,GI50,[51],1.61 µM
same,TGI,[51],6.28 µM
same,GI50,[22],1.68 µM
same,TGI,[22],3.51 µM
same,GI50,[23],4.04 µM
same,TGI,[23],9.74 µM
same,GI50,[24],1.23 µM
same,TGI,[24],3.13 µM
same,GI50,[25],0.363 µM
same,TGI,[25],1.69 µM
same,GI50,[26],1.06 µM
same,TGI,[26],4.54 µM
same,GI50,[52],1.07 µM
same,TGI,[52],5.73 µM
same,GI50,[27],1.9 µM
same,TGI,[27],6.38 µM
same,GI50,[28],1.34 µM
same,TGI,[28],3.8 µM
same,GI50,[29],3.38 µM
same,TGI,[29],14.4 µM
same,GI50,[30],0.512 µM
same,TGI,[30],1.93 µM
same,GI50,[53],3.19 µM
same,TGI,[53],11.8 µM
same,GI50,[54],1.84 µM
same,TGI,[54],9.65 µM
same,GI50,[31],3.07 µM
same,TGI,[31],19 µM
same,GI50,[55],2.12 µM
same,TGI,[55],15.1 µM
same,GI50,[32],0.315 µM
same,TGI,[32],1.12 µM
same,GI50,[33],0.79 µM
same,TGI,[33],2.68 µM
same,GI50,[34],1.6 µM
same,TGI,[34],4.42 µM
same,GI50,[56],3.35 µM
same,TGI,[56],10.6 µM
same,GI50,[35],1.23 µM
same,TGI,[35],4.63 µM
same,GI50,[36],0.149 µM
same,TGI,[36],0.568 µM
same,GI50,[57],1.68 µM
same,TGI,[57],3.76 µM
same,GI50,[37],1.27 µM
same,TGI,[37],7.52 µM
same,GI50,[58],2.01 µM
same,TGI,[58],11.1 µM
